Data from PubChem BioAssay (NCI).
Several values for one entry are separate records, joined by “and”; a condition that tells them apart may be missing. Equal values may be shown once.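 Cultured in 96-well plates, cells were exposed to test compound for 48 hours across five concentrations. Here, GI50 denotes the concentration required for 50% inhibition of growth. At the TGI there is no net growth.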

What was measured:
Assay in all cases: DTP human tumour cell line panel, 48 h
[1] = test system: 786-0 renal
[2] = test system: A498 renal
[3] = test system: A549 NSCLC
[4] = test system: ACHN renal
[5] = test system: BT-549 breast
[6] = test system: CAKI-1 renal
[7] = test system: CCRF-CEM leukemia
[8] = test system: COLO 205 colon
[9] = test system: DU-145 prostate
[10] = test system: EKVX NSCLC
[11] = test system: HCC-2998 colon
[12] = test system: HCT-116 colon
[13] = test system: HCT-15 colon
[14] = test system: HL-60(TB) leukemia
[15] = test system: HOP-62 NSCLC
[16] = test system: HOP-92 NSCLC
[17] = test system: HS 578T breast
[18] = test system: HT29 colon
[19] = test system: IGROV1 ovarian
[20] = test system: K-562 leukemia
[21] = test system: KM12 colon
[22] = test system: LOX IMVI melanoma
[23] = test system: M14 melanoma
[24] = test system: MALME-3M melanoma
[25] = test system: MCF7 breast
[26] = test system: MDA-MB-231 breast
[27] = test system: MDA-MB-435
[28] = test system: MOLT-4 leukemia
[29] = test system: NCI-H226 lung
[30] = test system: NCI-H23 lung
[31] = test system: NCI-H460 lung
[32] = test system: NCI-H522 lung
[33] = test system: NCI/ADR-RES ovarian
[34] = test system: OVCAR-3 ovarian
[35] = test system: OVCAR-4 ovarian
[36] = test system: OVCAR-5 ovarian
[37] = test system: OVCAR-8 ovarian
[38] = test system: PC-3 prostate
[39] = test system: RPMI-8226 leukemia
[40] = test system: RXF 393 renal
[41] = test system: SF-268 CNS
[42] = test system: SF-295 CNS
[43] = test system: SF-539 CNS
[44] = test system: SK-MEL-2 melanoma
[45] = test system: SK-MEL-28 melanoma
[46] = test system: SK-MEL-5 melanoma
[47] = test system: SK-OV-3 ovarian
[48] = test system: SN12C renal
[49] = test system: SNB-19 CNS
[50] = test system: SNB-75 CNS
[51] = test system: SR leukemia
[52] = test system: SW-620 colon
[53] = test system: T-47D breast
[54] = test system: TK-10 renal
[55] = test system: U251 CNS
[56] = test system: UACC-257 melanoma
[57] = test system: UACC-62 melanoma
[58] = test system: UO-31 renal

C[C@@]1(C(=O)Nc2ccc(F)nc2)CCCN1c1nc(Nc2cc(C3CC3)[nH]n2)c2cccn2n1
GI50 [1]: 0.855 µM and 2.78 µM
TGI [1]: > 4.29 µM and 17.7 µM
GI50 [2]: 0.194 µM and 0.927 µM
TGI [2]: 0.896 µM and 3.99 µM
GI50 [3]: 0.259 µM and 0.384 µM
TGI [3]: > 10 µM and 22.9 µM
GI50 [4]: 0.849 µM and 3.36 µM
TGI [4]: > 3.47 µM and 26.1 µM
GI50 [5]: 0.832 µM and 3.06 µM
TGI [5]: > 2.46 µM and 14.2 µM
GI50 [6]: 0.565 µM and 0.725 µM
TGI [6]: > 2.29 µM and 7 µM
GI50 [7]: 0.378 µM and 0.574 µM
TGI [7]: > 100 µM
GI50 [8]: 0.00929 µM and 0.0501 µM
TGI [8]: 0.236 µM and 0.321 µM
GI50 [9]: 1.03 µM and 2.57 µM
TGI [9]: > 4 µM and 16.4 µM
GI50 [10]: 0.417 µM and 1.21 µM
TGI [10]: > 4.23 µM and 17.1 µM
GI50 [11]: 1.06 µM and 6.27 µM
TGI [11]: > 4.7 µM and 22.7 µM
GI50 [12]: 0.314 µM and 0.575 µM
TGI [12]: > 2.33 µM and 15.9 µM
GI50 [13]: 0.826 µM and 2.12 µM
TGI [13]: > 4.91 µM and 36.1 µM
GI50 [14]: 0.00905 µM
TGI [14]: > 2.06 µM
GI50 [15]: 0.404 µM and 1.71 µM
TGI [15]: > 5.17 µM and 15.4 µM
GI50 [16]: 0.0119 µM and < 0.01 µM
TGI [16]: 0.672 µM and 0.2 µM
GI50 [17]: 0.631 µM and 2.56 µM
TGI [17]: 3.19 µM and 8.61 µM
GI50 [18]: 0.00443 µM and 0.0103 µM
TGI [18]: > 10 µM and 1.84 µM
GI50 [19]: 0.514 µM and 1.71 µM
TGI [19]: > 3.87 µM and 16.5 µM
TGI [20]: > 10 µM and 56.6 µM
GI50 [21]: 0.0533 µM and 0.125 µM
TGI [21]: 0.467 µM and 0.817 µM
GI50 [22]: 0.346 µM and 1.1 µM
TGI [22]: > 2.04 µM and 12.2 µM
GI50 [23]: 0.624 µM and 2.5 µM
TGI [23]: > 2.85 µM and 20.5 µM
GI50 [24]: 11.7 µM
TGI [24]: > 4.48 µM and 29.4 µM
GI50 [25]: 0.0445 µM and 0.0305 µM
TGI [25]: > 2.69 µM and 15.2 µM
GI50 [26]: 0.786 µM and 3.11 µM
TGI [26]: > 10 µM and 15.1 µM
TGI [27]: > 5.42 µM and 23.6 µM
GI50 [28]: 7.88 µM
TGI [28]: > 3.39 µM and 58.7 µM
GI50 [29]: 0.248 µM and 0.651 µM
TGI [29]: 1.9 µM and 7.91 µM
GI50 [30]: 0.391 µM and 0.794 µM
TGI [30]: > 4.93 µM and 19.8 µM
GI50 [31]: 0.184 µM and 0.288 µM
TGI [31]: > 3.07 µM and 14.3 µM
GI50 [32]: 1.19 µM and 4 µM
TGI [32]: > 2.54 µM and 20.9 µM
GI50 [33]: 3.99 µM and 4.99 µM
TGI [33]: > 10 µM and 25.9 µM
GI50 [34]: 8.73 µM
TGI [34]: > 3.4 µM and 22.3 µM
GI50 [35]: 1.34 µM and 3.2 µM
TGI [35]: > 3.38 µM and 26.7 µM
GI50 [36]: 0.225 µM and 0.455 µM
TGI [36]: > 2.77 µM and 15.5 µM
GI50 [37]: 1.77 µM and 5.99 µM
TGI [37]: > 10 µM and 21.1 µM
GI50 [38]: 0.989 µM and 1.41 µM
TGI [38]: > 7.62 µM and 23.5 µM
GI50 [39]: 7.86 µM
TGI [39]: > 2.89 µM and 42.1 µM
GI50 [40]: 0.396 µM and 1.44 µM
TGI [40]: 1.26 µM and 7.11 µM
GI50 [41]: 0.631 µM and 2.56 µM
TGI [41]: > 2.57 µM and 15.6 µM
GI50 [42]: 0.472 µM and 0.841 µM
TGI [42]: 3.2 µM and 6.78 µM
GI50 [43]: 0.82 µM and 2.47 µM
TGI [43]: > 2.45 µM and 16.3 µM
GI50 [44]: 0.631 µM and 2.64 µM
TGI [44]: > 2.29 µM and 18.8 µM
GI50 [45]: 11.8 µM
TGI [45]: > 3.92 µM and 25.7 µM
GI50 [46]: 3.82 µM
TGI [46]: > 2.15 µM and 17.5 µM
GI50 [47]: 0.95 µM and 6.12 µM
TGI [47]: > 4.91 µM and 22.2 µM
GI50 [48]: 0.877 µM and 3.55 µM
TGI [48]: > 6.62 µM and 18.3 µM
GI50 [49]: 12.3 µM
TGI [49]: > 10 µM and 37.3 µM
GI50 [50]: 0.138 µM and 1.24 µM
TGI [51]: > 2.53 µM and 15.7 µM
GI50 [52]: 0.214 µM and 0.342 µM
TGI [52]: > 10 µM and 23.4 µM
GI50 [53]: 1.2 µM and 7.47 µM
TGI [53]: > 3.53 µM and 27.2 µM
GI50 [54]: 1.57 µM and 0.593 µM
TGI [54]: > 10 µM and 8.38 µM
GI50 [55]: 1.74 µM and 4.92 µM
TGI [55]: > 7.39 µM and 20.6 µM
GI50 [56]: 0.211 µM and 0.12 µM
TGI [56]: > 4.46 µM and 16.5 µM
GI50 [57]: 0.388 µM and 2.1 µM
TGI [57]: > 2.12 µM and 18.7 µM
GI50 [58]: 0.458 µM and 2.78 µM
TGI [58]: > 4.38 µM and 16 µM

COc1cc(/C=N/n2c(-c3ccccc3)n[nH]c2=O)cc(OC)c1OC
TGI [1]: 48.2 µM
TGI [2]: 17.4 µM
TGI [3]: > 100 µM
TGI [4]: 40.5 µM
TGI [5]: 18.6 µM
TGI [6]: 21.7 µM
TGI [7]: > 100 µM
TGI [8]: > 100 µM
TGI [9]: > 76.2 µM
TGI [10]: > 100 µM
TGI [11]: > 100 µM
TGI [12]: > 100 µM
TGI [13]: > 100 µM
TGI [14]: > 100 µM
TGI [15]: 33.1 µM
TGI [16]: > 82.2 µM
TGI [17]: 20.2 µM
TGI [18]: > 100 µM
TGI [19]: > 100 µM
TGI [20]: > 100 µM
TGI [21]: > 100 µM
TGI [22]: > 100 µM
TGI [23]: > 100 µM
TGI [24]: 48.8 µM
TGI [25]: > 100 µM
TGI [26]: > 61.8 µM
TGI [27]: 6.43 µM
TGI [28]: > 100 µM
TGI [29]: > 100 µM
TGI [30]: > 71.8 µM
TGI [31]: > 100 µM
TGI [32]: > 58.1 µM
TGI [33]: 9.96 µM
TGI [34]: > 37.5 µM
TGI [35]: > 100 µM
TGI [36]: > 100 µM
TGI [37]: > 100 µM
TGI [38]: > 100 µM
TGI [39]: > 100 µM
TGI [40]: 29.8 µM
TGI [41]: 40.7 µM
TGI [42]: 18 µM
TGI [43]: 39.1 µM
TGI [44]: > 59 µM
TGI [45]: > 100 µM
TGI [46]: > 100 µM
TGI [47]: > 25 µM
TGI [48]: > 100 µM
TGI [49]: > 43.1 µM
TGI [50]: > 30.2 µM
TGI [51]: > 100 µM
TGI [52]: > 100 µM
TGI [53]: > 100 µM
TGI [54]: > 65.9 µM
TGI [55]: > 42.3 µM
TGI [56]: > 100 µM
TGI [57]: > 100 µM
TGI [58]: > 100 µM
